Source: ChEMBL document CHEMBL1201862, “PubChem BioAssay data set” (2004)
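Exposure lasted 48 hours, with cells grown in 96-well plates and compounds tested at five concentrations. GI50: concentration for 50% inhibition of growth.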 The source made the active and inactive calls. No stated cut-off is given here; in the data, active = GI50 up to about 1.1 µM and inactive = higher.

Assays:
Assay in all cases: DTP human tumour cell line panel, 48 h
[1] = test system: Hs-578T
[2] = test system: HCT-15
[3] = test system: SK-MEL-5
[4] = test system: MOLT-4
[5] = test system: KM12
[6] = test system: EKVX
[7] = test system: HL-60
[8] = test system: MDA-MB-435
[9] = test system: SNB-75
[10] = test system: SK-MEL-28
[11] = test system: U-251
[12] = test system: UACC-62
[13] = test system: HCC 2998
[14] = test system: 786-0
[15] = test system: UO-31
[16] = test system: SR
[17] = test system: SF-539
[18] = test system: MDA-MB-231
[19] = test system: LOX IMVI
[20] = test system: SK-OV-3

`Cc1cc(-c2nc3cccc(O)c3s2)ccc1N` was tested, and the GI50 [1] was 5.75 µM (inactive), the GI50 [2] was 35 µM and the GI50 [3] was 19.3 µM (inactive). The GI50 [4] was 28.2 µM (inactive), the GI50 [5] was 10.3 µM (inactive) and the GI50 [6] was 15.7 µM (inactive). The GI50 [7] was 22.3 µM (inactive), the GI50 [8] was 17.4 µM (inactive) and the GI50 [9] was > 100 µM (inactive). For the same compound, the GI50 [10] was 51.4 µM (inactive), the GI50 [11] was 41.1 µM (inactive) and the GI50 [12] was 16.3 µM (inactive). The GI50 [13] was 45.3 µM (inactive), the GI50 [14] was 34.1 µM (inactive) and the GI50 [15] was 4.43 µM (inactive). The GI50 [16] was 40.8 µM (inactive), the GI50 [17] was 57.4 µM (inactive) and the GI50 [18] was 31.3 µM (inactive). The GI50 [19] was 26.4 µM (inactive) and the GI50 [20] was 52.8 µM (inactive).

With `O=Nc1c(-c2c(O)[nH]c3ccccc23)[nH]c2ccccc12` [INDIRUBIN-3-MONOXIME] the GI50 [1] was 4.47 µM (inactive), the GI50 [2] was 2.48 µM and the GI50 [3] was 3.99 µM (inactive). The GI50 [4] was 4.15 µM (inactive), the GI50 [5] was 0.0865 µM (active) and the GI50 [6] was 1.9 µM (inactive). For the same compound, the GI50 [7] was 2.72 µM (inactive), the GI50 [8] was 3.79 µM (inactive) and the GI50 [9] was 3.88 µM (inactive). For the same compound, the GI50 [10] was 6.9 µM (inactive), the GI50 [11] was 6.97 µM (inactive) and the GI50 [12] was 2.93 µM (inactive). The GI50 [13] was 4.27 µM (inactive), the GI50 [14] was 7.57 µM (inactive) and the GI50 [15] was 2.38 µM (inactive). The GI50 [16] was 4.85 µM (inactive), the GI50 [17] was 20 µM (inactive) and the GI50 [18] was 3.38 µM (inactive). For the same compound, the GI50 [19] was 3.86 µM (inactive) and the GI50 [20] was 1.56 µM (inactive).
